Measured values taken from article PMC12113540, “Isolation and Characterization of L-Asparaginase-Producing Bacteria from the Arabian–Persian Gulf Region: First Report on Bacillus xiamenensis ASP-J1-4 as a Producer and Its Potential Application” (Marine Drugs, 2025).

Tested on: T1, ASP-J1-4 L-ASNase
T1 construct: gene ansZ; native enzyme from culture broth, acetone precipitation, dialysis, DEAE-Sepharose; 36 kDa (37 kDa in abstract) by SDS-PAGE; no L-glutaminase activity
Experiment: ammonia release, Nessler's reagent, A436; Lineweaver-Burk plot
Type: biochemical, Bacillus xiamenensis
Conditions: 0.02-2.42 mM L-ASN; regular assay conditions (pH and temperature not restated for kinetics)

NC(=O)C[C@H](N)C(=O)O [L-ASN]
Km: 150 µM
